# From ChEMBL document CHEMBL1201862, “PubChem BioAssay data set” (2004)
# Calls of active or inactive are those of the source.
# Columns and labels:
# [1] = target: T1, Bcl-2-related protein A1 (Mus musculus, UniProt Q07440); experiment: Bfl-1 binding inhibitors, SAR follow-up, biochemical, fluorescence polarization (AID 1070)
# T1 sequence (Q07440 whole entry): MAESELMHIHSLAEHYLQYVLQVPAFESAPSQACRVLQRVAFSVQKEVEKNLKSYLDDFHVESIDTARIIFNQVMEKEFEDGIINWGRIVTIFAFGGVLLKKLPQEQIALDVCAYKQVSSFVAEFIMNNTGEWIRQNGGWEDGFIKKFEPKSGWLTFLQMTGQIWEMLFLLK
# [2] = target: T1, Bcl-2-related protein A1; experiment: Bfl-1 inhibitors blocking BH3 peptide binding, confirmation, biochemical, TR-FRET, mouse Bfl-1 (AID 621);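 note: TR-FRET binding of GST-Bfl-1 to FITC-labelled Bid peptide via terbium antibody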
# [3] = target: Glyceraldehyde-3-phosphate dehydrogenase (Homo sapiens, UniProt P04406)
# Chain of Glyceraldehyde-3-phosphate dehydrogenase (P04406 whole entry): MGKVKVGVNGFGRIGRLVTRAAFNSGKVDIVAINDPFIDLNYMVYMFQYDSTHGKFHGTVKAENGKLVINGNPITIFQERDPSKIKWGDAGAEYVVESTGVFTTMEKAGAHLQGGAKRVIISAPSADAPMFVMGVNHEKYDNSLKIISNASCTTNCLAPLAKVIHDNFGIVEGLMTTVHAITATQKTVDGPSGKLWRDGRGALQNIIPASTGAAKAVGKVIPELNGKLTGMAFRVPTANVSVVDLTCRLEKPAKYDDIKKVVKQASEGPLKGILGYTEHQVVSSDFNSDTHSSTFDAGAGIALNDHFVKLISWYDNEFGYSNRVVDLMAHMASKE
# [4] = target: Troponin, cardiac muscle (Homo sapiens, UniProt P19429+P45379+P63316); experiment: Fluorescence-based biochemical high throughput dose response assay for activators of the calcium sensitivity of cardiac Regulated Thin Filaments (RTF). [Related pubchem assays (depositor defined):AID493008, AID493018, AID504382, AID504383]; assay type: protein-complex assay
# [5] = HepG2 cell cytotoxicity, dose response, cytotoxicity control, ATP luminescence, cherry-pick, activator set 2 (AID 1053143); assay type: functional, cell-based
# [6] = target: T2, E3 ubiquitin-protein ligase XIAP (Homo sapiens, UniProt P98170); experiment: Counter Screen using XIAP-Bir3 for Chemical Antagonists of Bir1/2 domains of IAP-family anti-apoptotic proteins. [Related pubchem assays (depositor defined):AID1018, AID1449, AID1514, AID1638, AID1749, AID1750, AID488957, AID488963]
# T2 sequence (P98170 whole entry): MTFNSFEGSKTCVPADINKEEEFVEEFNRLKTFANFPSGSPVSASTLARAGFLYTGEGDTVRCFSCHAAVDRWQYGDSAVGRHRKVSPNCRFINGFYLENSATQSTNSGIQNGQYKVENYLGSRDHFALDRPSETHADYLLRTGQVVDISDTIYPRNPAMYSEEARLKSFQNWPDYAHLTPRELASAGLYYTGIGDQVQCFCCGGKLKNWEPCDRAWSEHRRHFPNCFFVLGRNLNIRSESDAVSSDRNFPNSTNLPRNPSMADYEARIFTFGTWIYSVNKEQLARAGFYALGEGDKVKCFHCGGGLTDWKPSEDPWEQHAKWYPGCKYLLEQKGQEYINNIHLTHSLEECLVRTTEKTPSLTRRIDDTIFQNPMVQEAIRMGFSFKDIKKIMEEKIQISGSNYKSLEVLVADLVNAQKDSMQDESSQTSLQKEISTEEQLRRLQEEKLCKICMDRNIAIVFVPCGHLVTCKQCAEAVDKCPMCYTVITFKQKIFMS
# [7] = target: T2, E3 ubiquitin-protein ligase XIAP; experiment: XIAP antagonists, biochemical, IAP family, fluorescence polarization (AID 1018); assay type: functional
# [8] = target: T3, Heat shock factor protein 1 (Mus musculus, UniProt P38532); experiment: inhibition of MG132-induced HSE-luciferase signal, confirmation, cell-based, NIH3T3, luminescence, dose retest (AID 2382); assay type: functional;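 note: NIH3T3 fibroblasts with HSF1-driven luciferase reporter stressed by proteasome inhibitor MG132; luminescence from HSF1-driven luciferase expression after 8 hours of MG132 stress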
# T3 sequence (P38532 whole entry): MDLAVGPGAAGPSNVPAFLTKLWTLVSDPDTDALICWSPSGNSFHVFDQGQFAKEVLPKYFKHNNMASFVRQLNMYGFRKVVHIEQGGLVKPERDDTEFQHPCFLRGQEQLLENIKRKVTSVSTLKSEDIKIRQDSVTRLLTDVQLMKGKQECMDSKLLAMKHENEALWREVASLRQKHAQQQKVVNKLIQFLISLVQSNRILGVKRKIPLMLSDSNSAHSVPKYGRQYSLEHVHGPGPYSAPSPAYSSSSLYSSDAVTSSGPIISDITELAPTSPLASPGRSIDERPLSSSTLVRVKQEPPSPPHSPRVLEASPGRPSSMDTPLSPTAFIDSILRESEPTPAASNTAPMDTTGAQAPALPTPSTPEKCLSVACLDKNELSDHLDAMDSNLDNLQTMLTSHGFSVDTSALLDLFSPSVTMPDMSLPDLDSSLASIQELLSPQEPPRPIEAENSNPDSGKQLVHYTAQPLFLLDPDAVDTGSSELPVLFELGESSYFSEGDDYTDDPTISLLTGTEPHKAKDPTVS
# [9] = target: Estrogen receptor beta (Homo sapiens, UniProt Q92731); experiment: ERβ–SRC-3 coactivator interaction inhibitors, confirmation, orthogonal assay, biochemical, ELISA, streptavidin-HRP readout (AID 1060)
# [10] = target: Cytochrome P450 3A4 (Homo sapiens, UniProt P08684); details: Potency;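 note: confirmatory qHTS run detecting inhibitors and substrates of CYP3A4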
# [11] = cytotoxicity toward DRD oncogenic fibroblasts, dose response, cell-based, non-viral oncogenic, luminescence (AID 1934); assay type: functional; details: Homo sapiens
# [12] = test system: BJ; experiment: cytotoxicity toward BJ-TERT-LT-ST fibroblasts, dose response, cell-based, RAS-independent, luminescence (AID 1935); assay type: functional; details: Homo sapiens;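 note: BJ fibroblasts immortalized with TERT plus LT and ST oncogenes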
# [13] = HEK293 cell cytotoxicity, dose response, cytotoxicity control, plate reader, cherry-picked samples (AID 743446); assay type: functional, cell-based
# [14] = test system: BJ; experiment: cells; assay type: functional, cell-based; details: Homo sapiens
# [15] = test system: BJ; experiment: cytotoxicity toward BJ-TERT fibroblasts, dose response, cell-based, RAS-independent, luminescence (AID 1933); assay type: functional; details: Homo sapiens
# [16] = A549 cell cytotoxicity, dose response, cytotoxicity control, plate reader, cherry-pick, antagonist series (AID 743412); assay type: functional, cell-based
# [17] = LGR2 antagonists, dose response, cell-based, HEK293, CRE-luciferase reporter, cherry pick, set 2 (AID 743343); assay type: functional;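 note: transfected cells were stimulated with diluted bursicon conditioned medium after compound addition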
# [18] = HepG2 cell cytotoxicity, dose response, cytotoxicity control, plate reader, cherry-pick, antagonist series (AID 743416); assay type: functional, cell-based
# [19] = MC4R antagonists, dose response, counter-screen for LGR2 antagonist project, cell-based, plate reader, cherry pick (AID 743444); assay type: functional;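 note: transfected HEK 293 cells stimulated with alpha-MSH peptide; potency of inhibitors of the alpha-MSH evoked signal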
# [20] = target: T4, Protein Tat (Human immunodeficiency virus type 1 group M subtype B (isolate HXB2)(HIV-1), UniProt P04608); assay type: functional;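 note: tat binding to TAR RNA read out by fluorescence polarization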
# T4 sequence (P04608 whole entry): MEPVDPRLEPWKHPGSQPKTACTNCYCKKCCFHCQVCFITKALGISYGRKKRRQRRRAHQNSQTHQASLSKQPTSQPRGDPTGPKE
# [21] = target: Peroxisome proliferator-activated receptor gamma/Nuclear receptor coactivator 2 (Homo sapiens, UniProt P37231); assay type: functional;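 note: agonist potency for raising coactivator recruitment to the receptor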
# Chain of Peroxisome proliferator-activated receptor gamma/Nuclear receptor coactivator 2 (P37231 whole entry): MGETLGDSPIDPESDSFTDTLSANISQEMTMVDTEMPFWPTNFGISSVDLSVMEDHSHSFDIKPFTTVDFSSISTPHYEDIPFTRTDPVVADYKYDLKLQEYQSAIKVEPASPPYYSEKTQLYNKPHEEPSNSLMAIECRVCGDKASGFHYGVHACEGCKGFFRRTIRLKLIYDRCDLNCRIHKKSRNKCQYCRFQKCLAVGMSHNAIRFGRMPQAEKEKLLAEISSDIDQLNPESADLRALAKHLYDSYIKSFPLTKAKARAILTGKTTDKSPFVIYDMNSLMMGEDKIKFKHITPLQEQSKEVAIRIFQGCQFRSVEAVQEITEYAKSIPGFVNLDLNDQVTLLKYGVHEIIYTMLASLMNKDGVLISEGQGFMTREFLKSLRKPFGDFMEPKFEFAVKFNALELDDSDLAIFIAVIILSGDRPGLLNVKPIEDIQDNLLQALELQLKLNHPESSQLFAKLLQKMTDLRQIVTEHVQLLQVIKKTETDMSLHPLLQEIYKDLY
# Chain of Peroxisome proliferator-activated receptor gamma/Nuclear receptor coactivator 2 (Q15596 whole entry, further chain): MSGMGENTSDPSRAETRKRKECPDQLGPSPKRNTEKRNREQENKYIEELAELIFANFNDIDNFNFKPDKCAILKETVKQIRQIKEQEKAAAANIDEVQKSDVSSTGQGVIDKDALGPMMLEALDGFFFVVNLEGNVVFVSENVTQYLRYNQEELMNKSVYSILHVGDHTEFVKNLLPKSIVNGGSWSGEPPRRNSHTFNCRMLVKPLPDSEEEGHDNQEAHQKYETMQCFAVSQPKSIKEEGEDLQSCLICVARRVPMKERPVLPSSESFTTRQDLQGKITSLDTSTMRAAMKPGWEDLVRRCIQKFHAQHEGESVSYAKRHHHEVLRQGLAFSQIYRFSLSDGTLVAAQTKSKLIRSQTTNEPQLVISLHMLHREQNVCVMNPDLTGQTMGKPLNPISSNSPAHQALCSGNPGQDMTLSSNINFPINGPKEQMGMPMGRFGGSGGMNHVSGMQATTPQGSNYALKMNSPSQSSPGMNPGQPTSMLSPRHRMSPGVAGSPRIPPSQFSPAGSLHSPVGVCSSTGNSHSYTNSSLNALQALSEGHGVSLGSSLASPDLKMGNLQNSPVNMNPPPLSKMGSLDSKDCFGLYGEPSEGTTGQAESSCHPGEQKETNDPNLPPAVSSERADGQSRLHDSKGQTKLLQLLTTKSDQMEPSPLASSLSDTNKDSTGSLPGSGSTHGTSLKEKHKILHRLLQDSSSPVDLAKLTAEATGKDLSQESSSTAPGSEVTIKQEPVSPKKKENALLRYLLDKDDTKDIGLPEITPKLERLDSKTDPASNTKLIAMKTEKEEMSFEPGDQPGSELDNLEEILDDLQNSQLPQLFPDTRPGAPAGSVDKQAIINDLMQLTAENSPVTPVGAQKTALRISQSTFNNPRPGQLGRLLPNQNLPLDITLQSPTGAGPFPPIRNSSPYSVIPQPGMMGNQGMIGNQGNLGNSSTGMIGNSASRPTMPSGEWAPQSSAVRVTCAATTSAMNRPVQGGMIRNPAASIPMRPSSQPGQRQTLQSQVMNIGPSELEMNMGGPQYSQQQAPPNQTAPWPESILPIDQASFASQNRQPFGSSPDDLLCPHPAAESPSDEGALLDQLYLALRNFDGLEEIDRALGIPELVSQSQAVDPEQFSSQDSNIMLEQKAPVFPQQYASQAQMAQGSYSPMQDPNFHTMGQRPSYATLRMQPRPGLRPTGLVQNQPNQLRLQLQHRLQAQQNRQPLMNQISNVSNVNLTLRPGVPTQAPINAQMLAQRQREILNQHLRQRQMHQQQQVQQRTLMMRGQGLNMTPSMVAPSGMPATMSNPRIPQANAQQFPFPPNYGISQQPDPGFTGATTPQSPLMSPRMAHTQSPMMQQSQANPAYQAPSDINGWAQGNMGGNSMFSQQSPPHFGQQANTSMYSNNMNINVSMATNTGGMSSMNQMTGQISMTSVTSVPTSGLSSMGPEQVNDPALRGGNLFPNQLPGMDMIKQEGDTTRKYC
# [22] = target: Peroxisome proliferator-activated receptor gamma/Nuclear receptor coactivator 3 (Homo sapiens, UniProt P37231); assay type: functional;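 note: agonist potency for raising coactivator recruitment to the receptor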
# Chain of Peroxisome proliferator-activated receptor gamma/Nuclear receptor coactivator 3 (P37231 whole entry): as the sequence (P37231 whole entry) above
# Chain of Peroxisome proliferator-activated receptor gamma/Nuclear receptor coactivator 3 (Q9Y6Q9 whole entry, further chain): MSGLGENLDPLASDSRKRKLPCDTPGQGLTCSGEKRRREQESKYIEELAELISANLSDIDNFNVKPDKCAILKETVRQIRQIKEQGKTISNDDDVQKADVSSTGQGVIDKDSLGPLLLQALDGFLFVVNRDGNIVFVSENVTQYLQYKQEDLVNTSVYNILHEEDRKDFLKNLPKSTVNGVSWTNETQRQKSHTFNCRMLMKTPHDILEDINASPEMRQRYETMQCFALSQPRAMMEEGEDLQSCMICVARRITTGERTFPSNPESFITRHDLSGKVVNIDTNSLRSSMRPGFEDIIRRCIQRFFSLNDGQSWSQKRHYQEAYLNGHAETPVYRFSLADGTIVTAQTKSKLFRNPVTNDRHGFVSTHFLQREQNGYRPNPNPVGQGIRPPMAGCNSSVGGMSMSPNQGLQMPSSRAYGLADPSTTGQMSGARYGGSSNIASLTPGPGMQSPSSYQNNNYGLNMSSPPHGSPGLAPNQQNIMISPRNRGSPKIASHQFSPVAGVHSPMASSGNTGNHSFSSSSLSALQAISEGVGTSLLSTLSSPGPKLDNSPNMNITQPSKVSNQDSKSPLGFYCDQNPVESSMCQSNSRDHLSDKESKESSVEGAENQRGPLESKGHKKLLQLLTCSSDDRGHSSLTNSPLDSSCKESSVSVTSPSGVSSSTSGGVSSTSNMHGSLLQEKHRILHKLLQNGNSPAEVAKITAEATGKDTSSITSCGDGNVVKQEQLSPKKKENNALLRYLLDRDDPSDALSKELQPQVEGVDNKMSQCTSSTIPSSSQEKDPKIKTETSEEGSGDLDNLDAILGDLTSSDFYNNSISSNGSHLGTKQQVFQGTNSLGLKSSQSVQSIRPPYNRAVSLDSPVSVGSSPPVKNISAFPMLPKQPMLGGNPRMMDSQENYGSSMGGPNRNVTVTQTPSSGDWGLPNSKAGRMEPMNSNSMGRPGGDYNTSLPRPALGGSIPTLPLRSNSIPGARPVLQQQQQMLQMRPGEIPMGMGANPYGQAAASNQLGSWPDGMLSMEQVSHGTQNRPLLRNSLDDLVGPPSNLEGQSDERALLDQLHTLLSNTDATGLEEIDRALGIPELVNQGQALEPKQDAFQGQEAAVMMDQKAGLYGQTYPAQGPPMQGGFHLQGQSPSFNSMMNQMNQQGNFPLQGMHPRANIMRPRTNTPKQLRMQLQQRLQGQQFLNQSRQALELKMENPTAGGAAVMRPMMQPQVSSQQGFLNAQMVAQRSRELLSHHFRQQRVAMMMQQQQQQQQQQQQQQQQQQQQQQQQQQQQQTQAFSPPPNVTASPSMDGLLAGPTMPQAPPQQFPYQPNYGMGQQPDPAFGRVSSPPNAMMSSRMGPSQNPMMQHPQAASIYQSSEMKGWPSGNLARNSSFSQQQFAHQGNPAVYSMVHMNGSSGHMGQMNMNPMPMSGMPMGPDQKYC
# [23] = target: Peroxisome proliferator-activated receptor gamma/Nuclear receptor coactivator 1 (Homo sapiens, UniProt P37231); assay type: functional;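 note: agonist potency as compounds enhance coactivator SRC-1 recruitment to PPARgamma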
# [24] = test system: H4; experiment: Luminescence Cell-Based Dose Response HTS to Identify Activators of 5'UTR Stem-Loop Driven Prion Protein mRNA Translation in H4 Neuroglioblastoma Cells. [Related pubchem assays: 1829 (Project Summary), 1814 (Primary HTS)]; assay type: functional; details: Homo sapiens
# [25] = target: T5, RNA-binding protein pos-1 (Caenorhabditis elegans, UniProt G5EF15); experiment: inhibitors of POS-1/mex-3 RNA binding, dose response, biochemical, fluorescence polarization (AID 1964);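 note: purified POS-1 fused to maltose binding protein made in E. coli; potency of compounds blocking POS-1 binding to fluorescent RNA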
# T5 sequence (G5EF15 whole entry): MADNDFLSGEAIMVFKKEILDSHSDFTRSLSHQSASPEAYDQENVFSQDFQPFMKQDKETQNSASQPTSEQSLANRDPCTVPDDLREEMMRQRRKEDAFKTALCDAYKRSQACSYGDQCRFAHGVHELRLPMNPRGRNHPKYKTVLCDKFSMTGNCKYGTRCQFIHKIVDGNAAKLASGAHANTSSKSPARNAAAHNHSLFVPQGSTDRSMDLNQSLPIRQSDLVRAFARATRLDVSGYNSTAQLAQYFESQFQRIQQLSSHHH
# [26] = target: T6, Zinc finger protein mex-5 (Caenorhabditis elegans, UniProt Q9XUB2); experiment: MEX-5/TCR-2 RNA interaction inhibitors, dose response, biochemical, C. elegans, fluorescence polarization (AID 1960)
# T6 sequence (Q9XUB2 whole entry): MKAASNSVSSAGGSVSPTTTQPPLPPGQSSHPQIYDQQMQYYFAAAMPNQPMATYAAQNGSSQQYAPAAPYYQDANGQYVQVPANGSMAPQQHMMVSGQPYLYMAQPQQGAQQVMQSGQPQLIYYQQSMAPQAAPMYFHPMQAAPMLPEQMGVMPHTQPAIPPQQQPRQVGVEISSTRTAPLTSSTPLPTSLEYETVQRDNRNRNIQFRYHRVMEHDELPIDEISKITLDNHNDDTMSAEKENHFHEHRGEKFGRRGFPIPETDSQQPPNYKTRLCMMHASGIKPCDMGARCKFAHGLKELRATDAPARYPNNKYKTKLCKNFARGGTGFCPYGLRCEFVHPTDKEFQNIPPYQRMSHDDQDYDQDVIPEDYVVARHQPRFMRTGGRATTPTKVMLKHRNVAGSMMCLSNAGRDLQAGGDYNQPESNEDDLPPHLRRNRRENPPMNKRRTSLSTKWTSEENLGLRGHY
# [27] = target: T7, Microphthalmia-associated transcription factor (Homo sapiens, UniProt O75030); experiment: TRPM1 promoter luciferase signal decrease, dose response, MITF inhibitor project, cell-based, SK-MEL-5, cherry-picked, set 3 (AID 493073); assay type: functional
# T7 sequence (O75030 whole entry): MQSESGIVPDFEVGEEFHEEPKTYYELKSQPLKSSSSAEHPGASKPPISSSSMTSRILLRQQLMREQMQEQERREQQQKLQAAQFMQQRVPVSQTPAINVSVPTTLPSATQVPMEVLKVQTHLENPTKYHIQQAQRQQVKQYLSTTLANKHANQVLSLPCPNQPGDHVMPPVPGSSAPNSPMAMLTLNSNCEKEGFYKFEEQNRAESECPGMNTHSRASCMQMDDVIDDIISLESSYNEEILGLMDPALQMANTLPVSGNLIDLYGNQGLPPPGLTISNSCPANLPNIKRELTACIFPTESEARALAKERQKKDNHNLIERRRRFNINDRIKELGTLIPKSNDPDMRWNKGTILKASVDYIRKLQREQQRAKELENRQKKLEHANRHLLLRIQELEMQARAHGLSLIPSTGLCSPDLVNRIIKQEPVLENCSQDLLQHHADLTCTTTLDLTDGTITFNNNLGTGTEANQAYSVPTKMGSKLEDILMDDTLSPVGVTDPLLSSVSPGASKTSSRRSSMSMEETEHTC
# [28] = target: Paired box protein Pax-8 (Homo sapiens, UniProt Q06710); experiment: inhibitors of PAX8-driven TPO luciferase reporter, dose response, RMG-I cells, cherry-pick (AID 687027); assay type: functional, cell-based;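 note: luciferase reporter driven by Pax8 target thyroperoxidase promoter measured by SteadyGlo luminescence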
structure (smiles),measurement,setting,value
Clc1ccc(-n2nnc(-c3cccnc3Cl)n2)cc1Cl,IC50,[1],> 100 µM (not active)
same,IC50,[2],> 100 µM (not active)
O=C1C(Cl)=C(N2CCN(CCOCCO)CC2)C(=O)N1c1ccc([N+](=O)[O-])cc1,IC50,[1],2.59 µM (active)
same,IC50,[3],> 100 µM (not active)
same,IC50,[2],3.51 µM (active)
CCOc1ccc2ccccc2c1CNCCN1CCOCC1,EC50,[4],> 71.5 µM (inactive)
Cc1csc(NC(=O)c2sccc2C)n1,AC50,[5],26 µM (active)
O=C1C(Cl)=C(Cl)C(=O)N1c1c(Cl)cccc1Cl,IC50,[1],> 100 µM (not active)
same,IC50,[3],> 100 µM (not active)
same,IC50,[2],30 µM (active)
O=C(NCc1ccc(Cl)cc1)c1ccc2[nH]cnc2c1,IC50,[6],> 100 µM (inactive)
same,IC50,[7],> 100 µM (not active)
N#CC1(C#N)COC23CCCCC2C1(C#N)C(=N)O3 (configuration not stated),IC50,[6],> 100 µM (inactive)
same,EC50,[8],> 195 µM (not active)
same,IC50,[7],> 100 µM (not active)
COC(=O)c1ccc(NC(=O)CSc2nc(C)cc(=O)[nH]2)cc1,IC50,[9],> 50 µM (not active)
Cc1nc(NC2CCCCC2)c2nc(-c3ccccc3)n(CCN3CCCC3)c2n1,AC50,[10],25.1 µM (inconclusive)
CN(C)C(=O)Oc1ccc(OCc2nc3ccccc3[nH]2)cc1,EC50,[11],8.55 µM (inconclusive)
same,EC50,[12],22.3 µM (active)
same,AC50,[13],10.2 µM (active)
same,EC50,[14],11.2 µM (inconclusive)
same,EC50,[15],8.38 µM (inconclusive)
same,AC50,[16],11.8 µM (active)
same,AC50,[17],6.62 µM (active)
same,AC50,[18],13.8 µM (active)
same,AC50,[19],6.14 µM (active)
CC(C)CC1(C(=O)O)NC(c2ccccc2O)C2C(=O)N(C(C)C)C(=O)C21 (configuration not stated),IC50,[6],> 100 µM (inactive)
same,IC50,[7],> 100 µM (not active)
O=C(CSc1nc2cc(Br)c[nH]c-2n1)c1cccc([N+](=O)[O-])c1,EC50,[4],> 71.5 µM (inactive)
COc1cc2c3c(c1OC)C1(C=CC(=O)C=C1)CC3N(C(=O)CCC(=O)O)CC2 (configuration not stated),IC50,[20],> 100 µM (active)
O=C(Nc1cccc(NS(=O)(=O)c2ccc(S(=O)(=O)NC3CC3)cc2)c1)c1ccccn1,EC50,[21],> 79.4 µM (not active)
same,EC50,[22],> 79.4 µM (not active)
same,EC50,[23],> 79.4 µM (not active)
O=C(Cc1nc2ccccc2nc1O)c1ccccc1,EC50,[21],> 79.4 µM (not active)
same,EC50,[24],419 nM (active)
same,EC50,[25],42.5 µM (inconclusive)
same,EC50,[26],> 300 µM (inconclusive)
same,EC50,[22],> 79.4 µM (not active)
same,EC50,[23],> 79.4 µM (not active)
NC(=O)CNCCC(c1ccccc1)c1ccccc1,AC50,[10],15.8 µM (inconclusive)
O=C1C(Cl)=C(N2CCN(c3ccc(Cl)cc3)CC2)C(=O)N1c1ccc(Cl)c(Cl)c1,IC50,[1],> 100 µM (not active)
same,IC50,[3],> 100 µM (not active)
same,IC50,[2],> 100 µM (not active)
S=C(NC1CCCCC1)NC1CCCCC1,AC50,[10],25.1 µM (inconclusive)
CN(Cc1ccccc1)C(=O)c1[nH]cnc1C(=O)NCc1ccccc1,EC50,[4],> 71.6 µM (inactive)
COCOC1CCC2C3CCC4=CC(=O)CCC4=C3C=CC12C (configuration not stated),IC50,[20],> 100 µM (active)
O=C(Nc1ccccc1)c1cc(C2CCCN(C(=O)C3CC3)C2)on1 (configuration not stated),AC50,[13],46.4 µM (active)
same,AC50,[16],49.2 µM (active)
same,AC50,[17],7.27 µM (active)
same,AC50,[18],> 52 µM (inactive)
same,AC50,[19],4.34 µM (active)
Cc1ccc(N(CC(=O)N/N=C/c2cccc(Br)c2)S(C)(=O)=O)cc1,IC50,[6],> 100 µM (inactive)
same,IC50,[7],> 100 µM (not active)
Cc1cc(NC(=O)c2ccc(OCC3CCCO3)cc2)ccc1Br (configuration not stated),AC50,[5],26 µM (active)
CCOC(=O)c1s/c(=N\C(=O)c2ccc(OC)c(OC)c2)n(C)c1C,EC50,[21],12.2 µM (not active)
same,EC50,[22],11.4 µM (not active)
same,EC50,[23],8.1 µM (active)
COc1ccc(/N=C2/S/C(=C\c3ccc(C)o3)C(=O)N2CC(C)C)cc1,IC50,[20],> 100 µM (active)
COc1cc(/C=C/C(=O)N2CCC=CC2=O)cc(OC)c1OC [PIPLARTINE],AC50,[10],0.0501 µM (inconclusive)
same,AC50,[27],7.4 µM (active)
same,AC50,[28],2.69 µM (active)
same,AC50,[5],17.4 µM (active)
